Reference: publication PMC11892739, “Site-specific molecular glues for the 14-3-3/Tau pS214 protein–protein interaction via reversible covalent imine tethering” (RSC Medicinal Chemistry, 2025)

Assays:
[1] = biological target: T1, 14-3-3ζ/Tau pS2 peptide interaction (Homo sapiens, UniProt P63104); test: Fluorescence anisotropy 14-3-3ζ titration in the presence of 250 μM compound and Tau pS2 peptide; assay type: binding; settings: for SF250μM (stabilization factor): 250 μM compound, apparent KD compared to internal DMSO reference
T1 construct: made in house; host or cells: NiCo21 (DE3) E. coli
T1 sequence (P63104 1-245): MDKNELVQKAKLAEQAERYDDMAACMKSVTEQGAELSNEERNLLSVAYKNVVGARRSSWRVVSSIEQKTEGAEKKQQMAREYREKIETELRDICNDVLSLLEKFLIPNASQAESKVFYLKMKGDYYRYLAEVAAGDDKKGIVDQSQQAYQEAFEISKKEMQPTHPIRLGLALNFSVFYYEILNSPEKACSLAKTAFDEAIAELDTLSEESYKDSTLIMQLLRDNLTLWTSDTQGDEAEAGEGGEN
Experimental: On the other hand, the PPI stabilizing potency of series 1 compounds was highly dependent on the position and chemical property of the substituent. […] The compound screen for these compounds was further complemented by 14-3-3ζ titration assays in the presence of a constant concentration of compound (250 μM) and Tau pS2 peptide (10 nM) (Fig. 3c, ESI ^† Fig. S6).
This statement is strengthened by the diminished stabilizing activity when shifting the more polar chloro substituent from the para (14) to the ortho (5) to the meta position (8), respectively. […]
chromatography (HisTrap high performance cartridges, Cytiva). Typically two 5 mL columns were used for a 2 L culture in which the lysate was loaded on the column, washed with 10 CV wash buffer (50 mM Hepes, pH 8.0, 300 mM NaCl, 25 mM imidazole, 2 mM βME), and eluted with several fractions (2-4 CV) of elution buffer (50 mM Hepes, pH 8.0, 300 mM NaCl, 250 mM imidazole, 2 mM βME). Fractions containing the 14-3-3 protein were combined and dialyzed into 25 mM HEPES pH 8.0, 200 mM NaCl, 10 mM MgCl2, 2 mM βME, followed by dialysis into 25 mM HEPES, 100 mM NaCl, 10 mM MgCl2, 500 μM TCEP (adjusted to pH 8.0). Dialyzed protein was concentrated to ∼40 mg/mL, analyzed by Q -Tof LC/MS, and aliquots were flash -frozen for storage at −80 °C. For 14 -3-3σ∆c, 1 mg TEV per 100 mg purified protein was added to the dialysis to remove the purification tag. The cleaved sample was then again loaded on a 10 mL Ni-NTA column to separate the cleaved product from the expression tag and residual uncleaved protein. The flowthrough was loade d on a Superdex 75 pg 16/60 size exclusion column (GE Life Sciences) using 25 mM HEPES, 100 mM NaCl, 10 mM MgCl2, 500 μM TCEP (adjusted to pH = 8.0) as running buffer. Fractions containing the 14 -3-3 protein were pooled and concentrated to ∼60 mg/mL, analyzed Q -Tof LC/MS, and aliquots were flash -frozen for storage at −80°C.
(§1) Fluorescence Anisotropy – compound titration
Compound titration assays were performed by titrating compounds (in 1% DMSO, starting at 500 μM) in a 2-fold dilution series to preformed complex of fluorescein -labeled Tau pS2 (10 nM) and 14 -3-3ζ (100 nM) (which represents approximately 20% bound Tau pS2 peptide to 14 -3-3ζ to allow further complex formation by addition of fragments 1) in FA buffer (10 mM HEPES pH 7.4, 150 mM NaCl, 50 µM TCEP, 0.1% (v/v) Tween20, 0.1% (w/v) BSA). Dilution series were made in polystyrene low -volume 384 -well plates (Corning #4514, Black Round Bottom). Measurements were performed directly after plate preparation, using a Tecan SPARK plate reader at room temperature ( λex: 485±20 nm; λem: 535±25 nm; mirror: automatic; flashes: 30; settle time: 1 ms; gain: optimal; Z -position: calculated from well). Wells containing only fluorescein labelled peptide were used to set as G -factor calibrated from these wells. All data were analyzed using GraphPad Prism (10.0.1) and fitted with a four -parameter logistic model (4PL) to determine binding affinities (dissociation constant, KD). All data shown is background corrected for the signal without 14 -3-3ζ and the mean and standard deviation of technical duplicate is plotted, assay performed in a scientific duplicate for hit compounds.
Fluorescence Anisotropy – 14-3-3 titrations in the presence of compound To characterize the affinity of the Tau peptides for 14-3-3 in the presence of compound, 14-3-3ζ or γ was titrated in a 2-fold dilution series starting at 400 (for the 14-3-3ζ titrations to Tau pS2) or 800 (for the 14-3-3γ titrations to Tau pS214 or pS324) µM. 14-3-3 was added to 10 nM of fluorescein-labeled peptide (Tau pS2, Tau pS214 or Tau pS324) in the presence of 250 µM compound (1% DMSO). The assays were performed in a similar way as described above. Data shown is the average and standard deviation of a technical duplicate, top plateau corrected where needed, assay performed in a scientific duplicate.
Fluorescence Anisotropy – peptide screen […]

[2] = tested on: 14-3-3γ/Tau pS324 interaction; test: Fluorescence anisotropy 14-3-3γ titration with compound and monovalent Tau pS324 peptide; assay type: binding; settings: for apparent cooperativity factor (app. α), 14-3-3γ/Tau pS324: 2D titrations, 14-3-3γ titrated at varied compound concentrations, saturation of the ratio
Experimental: FA assays in which 14-3-3γ was titrated to a constant concentration of compound (250 μM) in the presence of the distinct monovalent Tau peptide (10 nM) were performed.
The determined stabilization factors are concentration-dependent (here 250 μM of compound) and might differ based on assay design. […] The app. α-factors of these compounds for both 14-3-3/Tau complexes were determined by 14-3-3γ titrations in the presence of varied concentrations of the particular compound (Fig. 5d and e). Both compounds reached saturation for both 14-3-3γ/Tau complexes enabling accurate determination of the α-factor. The app. α-factors of aldehydes 1 and 18 were plotted for both 14-3-3γ/Tau complexes to investigate phospho-binding site selective cooperativity (Fig. 5f and h). To do so, the stabilization factors at a given compound concentration were plotted against the compound concentration, leading to the determination of the app. α-factors. […]
chromatography (HisTrap high performance cartridges, Cytiva). […] Dialyzed protein was concentrated to ∼40 mg/mL, analyzed by Q -Tof LC/MS, and aliquots were flash -frozen for storage at −80 °C. […] Fractions containing the 14 -3-3 protein were pooled and concentrated to ∼60 mg/mL, analyzed Q -Tof LC/MS, and aliquots were flash -frozen for storage at −80°C.
as §1
Compound titration assays were performed by titrating compounds (in 1% DMSO, starting at 500 μM) in a 2-fold dilution series to preformed complex of fluorescein -labeled Tau pS2 (10 nM) and 14 -3-3ζ (100 nM) (which represents approximately 20% bound Tau pS2 peptide to 14 -3-3ζ to allow further complex formation by addition of fragments 1) in FA buffer (10 mM HEPES pH 7.4, 150 mM NaCl, 50 µM TCEP, 0.1% (v/v) Tween20, 0.1% (w/v) BSA). […] Measurements were performed directly after plate preparation, using a Tecan SPARK plate reader at room temperature ( λex: 485±20 nm; λem: 535±25 nm; mirror: automatic; flashes: 30; settle time: 1 ms; gain: optimal; Z -position: calculated from well). […]

Row | Structure (SMILES) | SF250μM (stabilization factor) [1] | stabilization of the 14-3-3ζ/Tau pS2 peptide complex ([1]; screening hits) [fold] | SF250μM for the 14-3-3γ/Tau pS324 complex ([2]; 250 μM compound, 10 nM Tau pS324 peptide, internal DMSO reference) | apparent cooperativity factor (app. α), 14-3-3γ/Tau pS324 [2]
1 | O=Cc1ccc(-n2ccnc2-c2ccc(Cl)cc2)cc1Br [Compound 14] | 8.9 |  |  | 
2 | O=Cc1ccc(-n2ccnc2-c2ccc(I)cc2)cc1Br [Compound 15] | 3.1 |  |  | 
3 | Cc1ccc(-c2nccn2-c2ccc(C=O)c(Br)c2)cc1 [Compound 11] | 29 |  |  | 
4 | O=Cc1ccc(-n2ccnc2-c2ccccc2)cc1Br [Compound 1] | 23 | 23 |  | 6.8
5 | O=Cc1ccc(-n2ccnc2-c2ccc(F)cc2)cc1Br [Compound 13] | 33 |  |  | 
6 | Cc1cccc(-c2nccn2-c2ccc(C=O)c(Br)c2)c1 [Compound 6] | 10 |  |  | 

Now from value to compound, other results behind:

Row | SF250μM (stabilization factor) [1] | stabilization of the 14-3-3ζ/Tau pS2 peptide complex ([1]; screening hits) [fold] | Structure (SMILES) | SF250μM for the 14-3-3γ/Tau pS324 complex ([2]; 250 μM compound, 10 nM Tau pS324 peptide, internal DMSO reference) | apparent cooperativity factor (app. α), 14-3-3γ/Tau pS324 [2]
7 | 37 |  | CCc1ccc(-c2nccn2-c2ccc(C=O)c(Br)c2)cc1 [Compound 18] | 3.2 | 3.6
8 | 11 |  | O=Cc1ccc(-n2ccnc2-c2ccc(OC(F)(F)F)cc2)cc1Br [Compound 21] |  | 
9 | 34 |  | N#Cc1ccc(-c2nccn2-c2ccc(C=O)c(Br)c2)cc1 [Compound 22] |  | 
10 | 13 |  | O=Cc1ccc(-n2ccnc2-c2ccc(C(F)(F)F)cc2)cc1Br [Compound 20] |  | 
